IC50 data for 21 compounds are collected here from US8680282B2, “Cyclic inhibitors of carnitine palmitoyltransferase and treating cancer” (University Health Network, priority 2007, dated 2014).

By IC50 is commonly meant the concentration needed to halve the response being measured. High values mean lower potency, low ones higher potency.

The target of the experiment is T1, human CPT1A (Homo sapiens, UniProt P50416).
T1 construct: made in house; host or cells: Saccharomyces cerevisiae (pESC-trp) or cultured mammalian cells (pCDNA3.1); mitochondrial extract
T1 sequence (P50416 1-773): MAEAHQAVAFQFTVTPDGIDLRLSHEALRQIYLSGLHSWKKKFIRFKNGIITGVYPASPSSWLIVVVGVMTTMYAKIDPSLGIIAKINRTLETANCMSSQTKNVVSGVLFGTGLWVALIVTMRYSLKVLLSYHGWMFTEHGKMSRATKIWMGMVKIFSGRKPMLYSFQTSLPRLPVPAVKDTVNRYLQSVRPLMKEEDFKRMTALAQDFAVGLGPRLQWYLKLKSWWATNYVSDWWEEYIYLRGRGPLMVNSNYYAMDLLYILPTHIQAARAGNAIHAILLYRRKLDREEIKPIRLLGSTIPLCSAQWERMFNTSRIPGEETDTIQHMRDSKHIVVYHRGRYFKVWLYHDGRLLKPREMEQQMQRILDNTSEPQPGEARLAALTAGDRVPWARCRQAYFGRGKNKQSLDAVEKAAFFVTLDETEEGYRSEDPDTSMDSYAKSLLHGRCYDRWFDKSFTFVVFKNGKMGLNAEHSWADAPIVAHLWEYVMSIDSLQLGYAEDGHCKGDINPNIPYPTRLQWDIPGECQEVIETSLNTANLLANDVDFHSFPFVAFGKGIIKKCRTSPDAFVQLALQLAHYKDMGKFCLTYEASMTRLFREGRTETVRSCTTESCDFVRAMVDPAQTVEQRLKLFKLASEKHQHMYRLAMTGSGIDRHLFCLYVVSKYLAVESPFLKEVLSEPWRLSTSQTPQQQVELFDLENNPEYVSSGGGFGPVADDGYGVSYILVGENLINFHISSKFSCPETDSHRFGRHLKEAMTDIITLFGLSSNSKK
Put plainly: Human CPT1A LC/MS assay. To be noted: human CPT1A LC/MS assay, dose response format. Format: biochemical. The text has this:
Nucleotide sequences encoding human CPT1 enzymes were individually cloned into the yeast expression vector pESC-trp at the Cla1 (5′ terminus) and Pac1 (3′ terminus) restriction sites by PCR amplification of the open reading frame using oligonucleotide primers designed to encode the wild-type CPT1 protein sequence. Standard molecular biology techniques were used to transform and express the CPT1 proteins in the yeast Saccharomyces cerevisiae. The yeast cells were lysed by enzymatic degradation of the cell wall by Zymolase, and the mitochondria were isolated by standard biochemical techniques. The integrity of the isolated mitochondria was monitored by determining the activity of succinate dehydrogenase in the mitochondrial preparations. The mitochondrial extracts were stored at −80° C. in buffer containing 10 mM HEPES pH 7.4 and 250 mM sucrose.
Human CPT1 (A, B, C) genes were additionally cloned into the pCDNA3.1 vector individually for expression in cultured mammalian cells. Cells expressing the exogenous CPT1A were identified and grown under standard conditions. Mammalian cells were harvested, and mitochondrial extracts prepared using standard biochemical methods. The mitochondrial extracts were stored at −80° C. in buffer containing 10 mM HEPES pH 7.4 and 250 mM sucrose.
Assays were performed in 96-well plate format. Each 100 μL reaction contained 40 mM KCl, 50 mM TrisHCl pH 7.5, and 250 mM mannitol (Assay Buffer), and 1.6 μg protein of an extract, 20 μM palmitoyl-CoA, 50 μM L-carnitine, and 10 ug/mL BSA. Reactions were incubated at room temperature and stopped after 10 minutes by extraction with 200 μL of water saturated n-butanol containing myristoyl carnitine (500 nM) as an internal standard. The samples were thoroughly mixed, and the phases separated by centrifugation. Samples were prepared for analysis with a 10 fold dilution of the n-butanol phase containing the reaction product palmitoyl carnitine into a 50:50 (acetonitrile:water) solvent for analysis. 5 μL of prepared sample was separated on a Phenomenex Jupiter 5μ C4 reverse-phase column using an Agilent 1100 HPLC with a gradient from 50% acetonitrile (0.5% acetic acid) to 100% acetonitrile and quantified by detection with a Bruker Esquire 3000plus mass spectrometer. The abundance of the palmitoyl carnitine product was determined relative to the internal standard and the actual quantity of palmitoyl carnitine can be determined from a standard curve prepared using the n-butanol solution containing the internal standard.
Compounds were evaluated in two formats, a screening format, and a dose response format. The screening format was performed by adding 25 μL compound in 20% DMSO and Assay Buffer to 25 μL of extract containing […] and Assay Buffer, followed by a 10 minute incubation at room temperature. 50 μL of 40 μM palmitoyl-CoA in Assay Buffer was added to the reaction mixture, mixed and incubated for 10 minutes at room temperature. A negative control for activity was also performed where the carnitine was omitted from the reaction. A positive control for activity was also performed by omitting compound from the solution containing 20% DMSO and Assay Buffer. The reaction mixture was extracted and analyzed as described above. The inhibition by compound was determined by comparing the control relative activity to the relative activity observed in wells containing the compound. Relative activity was determined by subtracting the relative intensity (area palmitoyl carnitine/area myristoyl carnitine) observed in the negative control from the relative intensity observed in the experimental well, and dividing by the relative activity observed in the positive control.
[formula] Compound characterization by dose response format was performed using the above described assay conditions and a 16 point compound titration in 2 fold compound dilution steps. The DMSO concentration was kept constant at 20% (v/v) for all compound concentrations.
As to `CCCCCCCCc1ccc(NC(=O)NC2(CC(=O)O)CC[N+](C)(C)CC2)cc1` [Example S2, 4-(Carboxymethyl)-1,1-dimethyl-4-(3-(4-octylphenyl)ureido)piperidinium 2,2,2-trifluoroacetate], the IC50 was in the range of 10 to 100 µM.
`CCCCCc1ccc(S(=O)(=O)NC2(CC(=O)O)CCN(C)CC2)cc1` [Example S3, 4-(carboxymethyl)-1-methyl-4-(4-pentylphenylsulfonamido)piperidinium 2,2,2-trifluoroacetate] had an IC50 of 10 to 100 µM.
The figure for `CCCCCc1ccc(S(=O)(=O)NC2(CC(=O)O)CC[N+](C)(C)CC2)cc1` [Example S4, 4-(Carboxymethyl)-1,1-dimethyl-4-(4-pentylphenylsulfonamido)piperidinium 2,2,2-trifluoroacetate] is not above 1 µM; for `C[N+]1(C)CCC(CC(=O)O)(NC(=O)c2ccc(CCc3ccccc3)o2)CC1` [Example S5, 4-(Carboxymethyl)-1,1-dimethyl-4-(5-phenethylfuran-2-carboxamido)-piperidinium 2,2,2-trifluoroacetate] it is 1 to 10 µM; for `C[N+]1(C)CCC(CC(=O)O)(NC(=O)c2ccc(C#Cc3ccccc3)o2)CC1` [Example S6, 4-(Carboxymethyl)-1,1-dimethyl-4-(5-(phenylethynyl)furan-2-carboxamido)-piperidinium 2,2,2-trifluoroacetate] it is 100 to 1000 µM.
The same measure for `CCCCCCCCc1ccc(NS(=O)(=O)NC2(CC(=O)O)CCN(C)CC2)cc1` [Example S7, 4-(carboxymethyl)-1-methyl-4-(N-(4-octylphenyl)sulfamoylamino)-piperidinium 2,2,2-trifluoroacetate]: 10 to 100 µM.
As to `CCCCCCCCc1ccc(NS(=O)(=O)NC2(CC(=O)O)CC[N+](C)(C)CC2)cc1` [Example S8, 4-(carboxymethyl)-1,1-dimethyl-4-(N-(4-octylphenyl)sulfamoylamino)piperidinium 2,2,2-trifluoroacetate], the concentration for half-maximal inhibition (IC50) was in the range of 1 to 10 µM.
Compound `CCCCCCCCc1ccc(NC(=O)NC2(CC(=O)O)CCC[NH+](C)C2)cc1` (stereo not drawn) [Example S9, 3-(Carboxymethyl)-1-methyl-3-(3-(4-octylphenyl)ureido)piperidinium 2,2,2-trifluoroacetate] returned an IC50 of 10 to 100 µM.
The figure for `CCCCCCCCc1ccc(NC(=O)NC2(CC(=O)O)CCC[N+](C)(C)C2)cc1` (stereo not drawn) [Example S10, 3-(carboxymethyl)-1,1-dimethyl-3-(3-(4-octylphenyl)ureido)-piperidinium 2,2,2-trifluoroacetate] is 10 to 100 µM; for `CCCCCCCCc1ccc(NS(=O)(=O)NC2(CC(=O)O)CCCN(C)C2)cc1` (stereo not drawn) [Example S15, 3-(carboxymethyl)-1-methyl-3-(N-(4-octylphenyl)sulfamoylamino)-piperidinium 2,2,2-trifluoroacetate] it is 10 to 100 µM; for `CCCCCCCCc1ccc(NS(=O)(=O)NC2(CC(=O)O)CCC[N+](C)(C)C2)cc1` (stereo not drawn) [Example S16, 3-(carboxymethyl)-1,1-dimethyl-3-(N-(4-octylphenyl)sulfamoylamino)-piperidinium 2,2,2-trifluoroacetate] it is 1 to 10 µM.
The same measure for `CCCCCCCCc1ccc(NC(=O)NC2(CC(=O)O)CC[N+](C)(C)C2)cc1` (stereo not drawn) [Example S18, 3-(carboxymethyl)-1,1-dimethyl-3-(3-(4-octylphenyl)ureido)-pyrrolidinium 2,2,2-trifluoroacetate]: 10 to 100 µM; for `CCCCCc1ccc(S(=O)(=O)NC2(CC(=O)O)CC[N+](C)(C)C2)cc1` (stereo not drawn) [Example S20, 3-(carboxymethyl)-1,1-dimethyl-3-(4-pentylphenylsulfonamido)-pyrrolidinium 2,2,2-trifluoroacetate]: 1 to 10 µM; for `CCCCCCCCCCc1ccc(C(=O)NC2(CC(=O)O)CCN(C)C2)cc1` (stereo not drawn) [Example S21, 3-(carboxymethyl)-3-(4-decylbenzamido)-1-methylpyrrolidinium 2,2,2-trifluoroacetate]: 10 to 100 µM.
The compound `CCCCCCCCCCc1ccc(C(=O)NC2(CC(=O)O)CC[N+](C)(C)C2)cc1` (stereo not drawn) [Example S22, 3-(Carboxymethyl)-3-(4-decylbenzamido)-1,1-dimethylpyrrolidinium 2,2,2-trifluoroacetate] yielded an IC50 of 1 to 10 µM.
The same measure for `CCCCCCCCc1ccc(NC(=O)NC2(CC(=O)O)CNC2)cc1` [Example S23, 3-(carboxymethyl)-3-(3-(4-octylphenyl)ureido)azetidinium 2,2,2-trifluoroacetate]: 1000 to 2500 µM; for `CCCCCCCCc1ccc(NC(=O)NC2(CC(=O)O)C[N+](C)(C)C2)cc1` [Example S24, 3-(Carboxymethyl)-1,1-dimethyl-3-(3-(4-octylphenyl)ureido)azetidinium 2,2,2-trifluoroacetate]: 10 to 100 µM; for `O=C(O)CC1(NC(=O)c2ccc(C#Cc3ccccc3)o2)CNC1` [Example S26, 3-(carboxymethyl)-3-(5-(phenylethynyl)furan-2-carboxamido)-azetidinium 2,2,2-trifluoroacetate]: 100 to 1000 µM.
The figure for `CCCCCc1ccc(S(=O)(=O)NC2(CC(=O)O)CN(C)C2)cc1` [Example S27, 3-(carboxymethyl)-1-methyl-3-(4-pentylphenylsulfonamido)azetidinium 2,2,2-trifluoroacetate] is 10 to 100 µM; for `CCCCCc1ccc(S(=O)(=O)NC2(CC(=O)O)C[N+](C)(C)C2)cc1` [Example S29, 3-(carboxymethyl)-1,1-dimethyl-3-(4-pentylphenylsulfonamido)-azetidinium 2,2,2-trifluoroacetate] it is 10 to 100 µM.
Compound `CCCCCCCCc1ccc(N(C)S(=O)(=O)NC2(CC(=O)O)CCC[N+](C)(C)C2)cc1` (stereo not drawn) [Example S30, 3-(carboxymethyl)-1,1-dimethyl-3-(N-methyl-N-(4-octylphenyl)-sulfamoylamino)piperidinium 2,2,2-trifluoroacetate] showed an IC50 of 10 to 100 µM.
